These results are taken from PubChem BioAssay (NCI).

Where “and” joins values, the source holds several entries; their conditions need not be identical. Identical values can stand only once.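 Method: 48-hour compound exposure of cells in 96-well plates, five concentrations, linear interpolation of endpoints. At the GI50, growth is halved. The concentration for full growth arrest is given as TGI.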

Among the test systems are SNB-75 CNS; SF-539 CNS; SW-620 colon; SK-MEL-28 melanoma; NCI-H226 lung; OVCAR-3 ovarian; HCC-2998 colon; CAKI-1 renal; A549 NSCLC; SK-OV-3 ovarian.
Common to all, as to experiment: inhibition of tumour cell growth, NCI panel, 48 h

For `CC(=O)O[C@H]1C(=O)[C@@]2(C)C(C(OC(=O)c3ccccc3)[C@]3(O)CC(OC(=O)[C@H](OC(=O)CCC(=O)O)C(NC(=O)c4ccccc4)c4ccccc4)C(C)=C1C3(C)C)C1(OC(C)=O)COC1C[C@@H]2OC(=O)CCC(=O)O` (some centres not stated), the TGI in the assay on SNB-75 CNS was above 26.8 µM; in the assay on SF-539 CNS it was 2.72 µM; in the assay on SW-620 colon it was above 100 µM; with SK-MEL-28 melanoma, 86.9 µM; in the assay with NCI-H226 lung, 81.1 µM and > 100 µM; in the assay with OVCAR-3 ovarian, above 54.2 µM. For the same compound, the TGI was 42.4 µM in the assay on HCC-2998 colon, above 100 µM in the assay with CAKI-1 renal, above 100 µM in the assay with A549 NSCLC and above 100 µM in the assay with SK-OV-3 ovarian. The GI50 was 1.89 µM with OVCAR-3 ovarian; > 89.2 µM and 36.3 µM with CAKI-1 renal.

Take `NC(=O)c1cnc(N[C@@H]2CCCC[C@@H]2N)nc1Nc1cccc(-n2nccn2)c1`: the GI50 with SNB-75 CNS was 2.21 µM; with SF-539 CNS, 5.44 µM; in the assay on SW-620 colon, 3.81 µM; in the assay on SK-MEL-28 melanoma it was 3.26 µM; in the assay on NCI-H226 lung it was 4.73 µM; in the assay on OVCAR-3 ovarian it was 5.94 µM. The GI50 with HCC-2998 colon was 1.99 µM; in the assay with CAKI-1 renal, 2.47 µM; in the assay with A549 NSCLC, 3.58 µM; in the assay on SK-OV-3 ovarian it was 4.14 µM. Besides, the TGI in the assay with SNB-75 CNS turned out to be 12.4 µM; in the assay with SF-539 CNS it was 17.2 µM; in the assay with SW-620 colon, 13.4 µM; in the assay on SK-MEL-28 melanoma, 11.3 µM; with NCI-H226 lung, 17.8 µM; in the assay on OVCAR-3 ovarian it was 18.4 µM. The TGI in the assay on HCC-2998 colon worked out at 4.82 µM; in the assay on CAKI-1 renal it was 8.09 µM; in the assay on A549 NSCLC, 14.3 µM; in the assay with SK-OV-3 ovarian, 15.1 µM.

In the case of `CC(C)(C)N1CCC1C(N)=O` (configuration not stated), the GI50 with SNB-75 CNS, with SF-539 CNS, in the assay on SW-620 colon, with SK-MEL-28 melanoma, with NCI-H226 lung and in the assay on OVCAR-3 ovarian was above 100 µM throughout. Also, the GI50 with HCC-2998 colon, in the assay on CAKI-1 renal, in the assay with A549 NSCLC and in the assay on SK-OV-3 ovarian was above 100 µM throughout. The TGI in the assay on SNB-75 CNS, in the assay with SF-539 CNS, in the assay with SW-620 colon, in the assay on SK-MEL-28 melanoma, in the assay on NCI-H226 lung and in the assay with OVCAR-3 ovarian was above 100 µM in each case. For the same compound, the TGI with HCC-2998 colon, in the assay with CAKI-1 renal, with A549 NSCLC and in the assay on SK-OV-3 ovarian was above 100 µM throughout.

Regarding `CCOc1ccc(N=Cc2cccc3cccnc23)cc1`, the TGI in the assay on SNB-75 CNS, in the assay with SF-539 CNS, with SW-620 colon, in the assay with SK-MEL-28 melanoma, in the assay on NCI-H226 lung and in the assay on OVCAR-3 ovarian was above 100 µM in each case. In addition, the TGI with HCC-2998 colon, in the assay with CAKI-1 renal, in the assay on A549 NSCLC and with SK-OV-3 ovarian was above 100 µM each time.

For `N[C@@H](Cc1c[nH]c2ccccc12)C(=O)NC1CCN(C(=O)c2c[nH]c3ccccc23)CC1`, the GI50 in the assay with SNB-75 CNS was 37.4 µM; in the assay on SF-539 CNS, above 100 µM; with SW-620 colon, above 100 µM; with SK-MEL-28 melanoma, above 100 µM; in the assay on NCI-H226 lung, above 100 µM; in the assay with OVCAR-3 ovarian, above 100 µM. Further, the GI50 in the assay on HCC-2998 colon is above 100 µM; in the assay on CAKI-1 renal, above 100 µM; in the assay on A549 NSCLC, above 100 µM; with SK-OV-3 ovarian it was 90.5 µM. Moreover, the TGI with SNB-75 CNS, in the assay with SF-539 CNS, in the assay on SW-620 colon, in the assay with SK-MEL-28 melanoma, with NCI-H226 lung and in the assay with OVCAR-3 ovarian was above 100 µM throughout. Also, the TGI in the assay with HCC-2998 colon, in the assay with CAKI-1 renal, in the assay with A549 NSCLC and in the assay with SK-OV-3 ovarian was above 100 µM throughout.

Regarding `Cc1ccc2c(c1)nc(C(=O)c1ccco1)c(C(F)(F)F)[n+]2[O-]`, the GI50 in the assay on SNB-75 CNS is 76.7 µM; in the assay on SF-539 CNS it was above 100 µM; with SW-620 colon, 1.75 µM; in the assay on SK-MEL-28 melanoma, above 100 µM; with NCI-H226 lung it was above 100 µM; in the assay with OVCAR-3 ovarian it was above 100 µM. Further, the GI50 with HCC-2998 colon is above 100 µM; with CAKI-1 renal it was 77 µM; with A549 NSCLC, above 100 µM; in the assay on SK-OV-3 ovarian, above 100 µM. Further, the TGI in the assay on SNB-75 CNS is above 100 µM; with SF-539 CNS, above 100 µM; with SW-620 colon, 3.33 µM; in the assay on SK-MEL-28 melanoma it was above 100 µM; with NCI-H226 lung, above 100 µM; in the assay on OVCAR-3 ovarian, above 100 µM. Also, the TGI in the assay with HCC-2998 colon, in the assay on CAKI-1 renal, in the assay on A549 NSCLC and in the assay with SK-OV-3 ovarian was above 100 µM in each case.
